Data set [1] deals with T1, HPK1 (Homo sapiens (Human), UniProt Q92918). The data set is described as follows: HPK1 enzyme activity detection (1 mM ATP system), ADP-Glo, Pharmacological Experiment 1. It is filed as biochemical. As to the method:
Pharmacological Experiment 1: HPK1 Enzyme Activity Detection (1 mM ATP System)
• (1) Take ADP-GloTMKinase Assay Kit (Promega, Cat. No. V9102) to prepare 4× kinase buffer. • (2) Compound gradient dilution: The compound to be tested is diluted 3-fold, and 11 gradient concentrations are set, and each concentration is set for duplicate well detection. Serial dilutions were made in a 384-well plate to the corresponding 100×final concentration solution, and then 0.1 μL was transferred to the 384-well reaction plate for testing using Echo. Transfer 0.1 μL of 100% DMSO to the smallest and largest wells. • (3) Prepare HPK1 enzyme working solution using 4× kinase buffer. • (4) Add 5 μL of HPK1 enzyme working solution to each well and 5 μL of 1× kinase buffer to the smallest well. Centrifuge at 1000 rpm for 1 min and incubate at 25° C. for 15 min. • (5) During the incubation period, prepare the substrate working solution using 4× kinase buffer. • (6) Add 5 μL of substrate working solution containing 1 mM ATP to each well of the reaction plate, centrifuge at 1000 rpm for 1 min, and incubate at 25° C. for 60 min. • (7) At the end of incubation, add 5 μL of ADP Glo reagent to each well. Centrifuge at 1000 rpm for 1 min and incubate at 25° C. for 60 min. • (8) Add 10 μL of detection solution to each well, centrifuge at 1000 rpm for 1 min, and incubate at 25° C. for 60 min. • (9) Read using EnVision.
Inhibition rate calculation formula:
[formula] • Vehicle: Reading value of DMSO control well • Blank: No enzyme well reading • Largest well: Reading value of DMSO control well • Minimum well: No enzyme well reading
The log value of the concentration was used as the X-axis and the percentage inhibition rate was used as the Y-axis. The “log (inhibitor) vs. response—variable slope” of the analysis software GraphPad Prism 5 was used to fit the dose-effect curve to obtain the IC 50 value of the compound's inhibition of kinase binding.
See Table 1 for the enzymatic IC 50 data of the example compounds on HPK1.
(ADP-Glo first removes unused ATP, then detects ADP through luciferase.)

Data set [2] deals with GLK (Homo sapiens (Human), UniProt Q8IVH8). The data set is described as follows: GLK kinase assay (1 mM ATP system), ADP-Glo. Type of data set: biochemical. In a few lines:
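GLK kinase reaction with 1 mM ATP and MBP substrate ran 60 min at 25 °C after 15 min preincubation of enzyme with compound. ADP formed was detected by ADP-Glo luminescence; percent inhibition used to derive IC50.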

Data set [3] has as its system human peripheral blood mononuclear cells. The data set is described as follows: Detection of IFN-γ secretion in human peripheral blood mononuclear cells (anti-CD3/CD28 beads, ELISA). Type of data set: cell-based. The note with it: for Maximum induction factor: IFN-γ secretion, human PBMC; for EC3x: concentration for IFN-γ secretion of human PBMC to reach 3 times the baseline, 3 days. As to the method: Pharmacological Experiment 4: Detection of IFN-γ Secretion in Human Peripheral Blood Monocytes
• (1) Take human peripheral blood mononuclear cells frozen in liquid nitrogen, thaw in a 37° C. water bath, add 5 mL of preheated RPMI-1640 complete medium (containing 10% fetal bovine serum and penicillin/streptomycin), centrifuge at 500 g for 10 minutes, and discard the supernatant; • (2) Resuspend the cells in RPMI-1640 complete medium, adjust the density to 5×10^6 cells/mL, inoculate in a low-adhesion 6-well plate (Corning, 3471), and culture at 37° C. for 2 days; • (3) Collect cultured human peripheral blood mononuclear cells, centrifuge at 500 g for 10 min, and discard the supernatant; • (4) Resuspend the cells in RPMI-1640 complete medium, adjust the density to 1×10^6 cells/mL, and inoculate them in a round-bottom 96-well plate (Jet Biofil, TCP-002-096), with 100 μL per well; • (5) Add 50 μL of the test compound to each well and incubate at 37° C. for 30 min; • (6) Take human anti-CD3/CD28 magnetic beads (Miltenyi, 130-091-441), wash once with RPMI-1640 complete medium, and adjust the density to 0.5×106 beads/mL for later use; • (7) After the compound incubation, 50 μL of anti-human CD3/CD28 magnetic beads were added to each well and cultured at 37° C. for 3 days, • (8) The cell culture supernatant was obtained and the IFN-γ secretion was detected using the Human IFN-gamma DuoSet ELISA kit (R&D, DY285B-05); • (9) The log value of concentration was used as the X-axis and the IFN-γ secretion amount was used as the Y-axis. The “log (agonist) vs. response−variable slope” equation of the analysis software GraphPad Prism 7 was used to fit the dose-effect curve, thereby obtaining the EC3x value and the maximum induction factor of the compound for the secretion of IFN-γ from human peripheral blood mononuclear cells to reach 3 times the baseline.

In data set [4] the test system is Jurkat cells. The data set is described as follows: Jurkat IL-2 secretion detection (anti-CD3/CD28 beads, ELISA). Type of data set: cell-based, human. Particulars: for Maximum induction factor: IL-2 secretion, Jurkat cells; for EC3x: concentration for IL-2 secretion of Jurkat cells to reach 3 times the baseline, 20 h. As to the method:
Pharmacological Experiment 5: Jurkat IL-2 Secretion Detection
• (1) Take the cultured Jurkat cells, adjust the density to 1×10^6 cells/mL, and inoculate them in a flat-bottom […] plate (Jet Biofil, TCP011096), with 100 μL per well, • (2) Add 50 μL of the test compound to each well and incubate at 37° C. for 30 min; • (3) Take human anti-CD3/CD28 magnetic beads (Miltenyi, 130-091-441), wash once with RPMI-1640 complete medium, and adjust the density to 4×106 beads/mL for later use; • (4) After the compound incubation, 50 μL of anti-human CD3/CD28 magnetic beads were added to each well and cultured at 37° C. for 20 h, • (5) The cell culture supernatant was obtained and the IL-2 secretion was detected using the Human IL-2 DuoSet ELISA kit (R&D, DY008); • (6) The log value of the concentration was used as the X-axis and the IL-2 secretion was used as the Y-axis. The “log (agonist) vs. response-variable slope” equation of the analysis software GraphPad Prism 7 was used to fit the dose-effect curve, thereby obtaining the […] and the […]
(In an ELISA, binding on a coated surface is turned into a signal by an enzyme label.)

Data set [5] deals with T1, HPK1. The data set is described as follows: HPK1 enzyme activity detection (1 mM ATP system), ADP-Glo with MBP substrate, Pharmacological Experiment 2. Type of data set: biochemical. In a few lines:
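Compound in DMSO preincubated with HPK1 for 15 min at 25 °C, then reaction started with ATP (1 mM system) and MBP substrate for 60 min at 25 °C. ADP formed quantified by ADP-Glo luminescence; IC50 derived from percentage inhibition.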

Data set [6] in a line: PK study of compound in dogs. Type of data set: in vivo. The note with it: Beagle dog. As to the method: Pharmacological Experiment 6: PK Study of Compound in Dogs The compound was mixed with a solvent of saline or 10% DMSO/5% Solutol/85% saline or 10% DMSO/10% Solutol/80% saline (specific solvents are shown in the table below), vortexed and sonicated to prepare a clear oral solution. […] The drug concentration was analyzed by LC-MS/MS method, and the pharmacokinetic parameters were calculated using Phoenix WinNolin software (Pharsight, USA).

Data set [7] in a line: PK study of compound in monkeys. It is filed as in vivo. Particulars: crab-eating monkey. Here is the method:
Pharmacological Experiment 7: PK Study of Compound in Monkeys
The drug concentration was analyzed by LC-MS/MS method, and the pharmacokinetic parameters were calculated using Phoenix WinNolin software (Pharsight, USA).

The subject of data set [8] is mouse colon cancer cell CT26. Nature of the data set: Efficacy in CT26 CDX model mice (subcutaneous homologous transplant tumor). Type of data set: in vivo, Balb/c mouse. The note with it: 75 mg/kg PO QD, after 21 days. Here is the method: Pharmacological Experiment 8; Study on the Efficacy of the Compound in CT26CDX Model Mice […] The first group (G1) was a vehicle control group (10% propylene glycol/5% HS15/85% glucose). The second group (G2) was the control compound D1-administered group. […] Note: PO stands for oral gavage, QD stands for once daily dosing, and BID stands for twice daily dosing. Tumor size and mouse body weight were measured twice a week during the experiment, and the weight of the animals on that day was used as a reference for each drug administration. The tumor size was measured by using a vernier caliper to measure the length (a) and width (b) of the tumor. The tumor volume (TV) was calculated using the following formula: TV=a*b2/2 After 21 days of administration, the tumor growth inhibition rate (TGI) of each administration group is shown in Table 10.

Where [9] appears, read: PO 5 mg/kg, DMSO/Solutol/saline.

The text below walks through data of patent US20250361241A1, “HPK1 INHIBITOR AND MEDICAL USE THEREOF” (Betta Pharmaceuticals Co., Ltd., priority 2022, published 2025).

GLK, sequence (Q8IVH8 whole entry, species assumed): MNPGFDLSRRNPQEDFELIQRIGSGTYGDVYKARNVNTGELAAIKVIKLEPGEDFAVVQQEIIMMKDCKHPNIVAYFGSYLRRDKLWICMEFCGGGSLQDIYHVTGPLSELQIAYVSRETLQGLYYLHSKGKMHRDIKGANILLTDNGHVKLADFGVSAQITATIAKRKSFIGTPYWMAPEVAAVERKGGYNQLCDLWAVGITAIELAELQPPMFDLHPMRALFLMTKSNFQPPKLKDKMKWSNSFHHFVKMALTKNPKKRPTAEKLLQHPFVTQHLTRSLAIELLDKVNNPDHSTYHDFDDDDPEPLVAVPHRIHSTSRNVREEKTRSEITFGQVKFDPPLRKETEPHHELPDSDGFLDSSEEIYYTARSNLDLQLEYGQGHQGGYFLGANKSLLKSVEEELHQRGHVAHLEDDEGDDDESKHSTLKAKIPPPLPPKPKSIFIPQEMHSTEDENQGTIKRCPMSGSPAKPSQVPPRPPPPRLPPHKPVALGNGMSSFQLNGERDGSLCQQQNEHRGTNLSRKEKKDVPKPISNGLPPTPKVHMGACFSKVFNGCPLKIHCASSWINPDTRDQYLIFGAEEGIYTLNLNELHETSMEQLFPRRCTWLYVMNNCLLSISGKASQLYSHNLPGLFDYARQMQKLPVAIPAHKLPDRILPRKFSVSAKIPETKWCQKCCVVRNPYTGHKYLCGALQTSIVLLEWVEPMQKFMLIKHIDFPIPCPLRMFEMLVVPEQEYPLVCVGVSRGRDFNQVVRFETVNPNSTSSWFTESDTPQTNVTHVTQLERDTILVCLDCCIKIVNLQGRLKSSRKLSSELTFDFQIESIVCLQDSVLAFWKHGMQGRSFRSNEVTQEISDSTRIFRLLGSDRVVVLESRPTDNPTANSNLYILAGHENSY
T1 sequence (Q92918 whole entry, species assumed): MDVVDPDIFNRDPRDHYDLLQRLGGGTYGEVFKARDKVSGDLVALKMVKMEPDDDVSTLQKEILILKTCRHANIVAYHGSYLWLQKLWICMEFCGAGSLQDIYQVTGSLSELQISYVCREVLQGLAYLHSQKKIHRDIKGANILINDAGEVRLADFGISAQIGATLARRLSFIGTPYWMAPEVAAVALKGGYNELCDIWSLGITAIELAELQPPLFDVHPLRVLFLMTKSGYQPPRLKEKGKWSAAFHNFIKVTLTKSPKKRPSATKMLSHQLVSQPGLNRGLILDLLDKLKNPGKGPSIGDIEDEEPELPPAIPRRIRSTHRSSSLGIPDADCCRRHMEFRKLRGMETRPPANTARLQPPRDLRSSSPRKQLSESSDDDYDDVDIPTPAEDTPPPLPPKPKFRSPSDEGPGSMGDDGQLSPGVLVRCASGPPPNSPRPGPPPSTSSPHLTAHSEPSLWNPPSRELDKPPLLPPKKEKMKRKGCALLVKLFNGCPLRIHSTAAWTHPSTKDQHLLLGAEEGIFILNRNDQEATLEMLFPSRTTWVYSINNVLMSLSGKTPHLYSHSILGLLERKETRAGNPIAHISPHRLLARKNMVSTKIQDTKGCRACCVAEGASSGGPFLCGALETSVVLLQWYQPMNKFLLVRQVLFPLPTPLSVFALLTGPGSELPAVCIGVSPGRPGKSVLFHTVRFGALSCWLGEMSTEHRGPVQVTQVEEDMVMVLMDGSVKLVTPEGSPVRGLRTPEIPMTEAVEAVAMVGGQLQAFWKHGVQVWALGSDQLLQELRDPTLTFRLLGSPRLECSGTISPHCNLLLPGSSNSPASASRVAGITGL

As for `CN(C)C1CCC2(CCOCC2)c2ccc(Nc3ccc(-c4cnc5cc(F)ccn45)c4c3C(=O)NC4)cc21` (centres unmarked) [Compound 1], in data set [1], half-maximal inhibition (IC50) was put at 61.2 nM.
As to `CN(C)C1CC2(CCOCC2)c2ccc(Nc3ccc(-c4cnc5cc(F)ccn45)c4c3C(=O)NC4)nc21` (centres unmarked) [Compound 2, 7-(7-(DIMETHYLAMINO)-2′,3′,5′,6,6′,7-HEXAHYDROSPIRO[CYCLOPENTYL]PYRIDINE-5,4′-PYRAN]-2-YL)AMINO)-4 (7-FLUOROIMIDAZOLE[1,2-A]PYRIDIN-3-YL)ISOINDOL-1-ONE], the figures for the IC50 in data set [2], in data set [1] and in data set [5] were 1170 nM, 7.01 nM and 11.2 nM, respectively. Moreover, the Maximum induction factor in data set [3] is on record as 5.9; in data set [4] it was 10. In addition, the “EC3x” value in data set [3] is given as 69 nM; in data set [4], 345 nM.
With `CN(C)C1CC2(CCOCC2)c2ccc(Nc3ccc(-c4cnc5cc(F)ccn45)c4c3C(=O)NC4)cc21` (centres unmarked) [Compound 9], it took 205 nM to reach half-maximal inhibition in data set [1] (IC50).
Take `Cc1cc(Nc2cnc(-c3ccnc4c3ccn4C)c3c2C(=O)NC3)cc2c1C1(CCOCC1)CN(C)C2` [Compound 14]: in data set [1], it took 54.8 nM to reach half-maximal inhibition (IC50).
On the same count and under the same terms, to `Cc1cc(Nc2ccc(-c3cnc4cc(F)ccn34)c3c2C(=O)NC3)cc2c1C1(CCOCC1)CN(C)C2` [Compound 15] belongs 6.14 nM; to `Cc1cc(Nc2ccc(-c3cnc4cc(F)ccn34)c3c2C(=O)NC3)cc2c1C1(CC1)CN(C)C2` [Compound 16], 20.6 nM.
With `O=C1NCc2c(-c3cnc4cc(F)ccn34)ccc(Nc3ccc4c(n3)C(N3CCCC3)CC43CCOCC3)c21` (centres unmarked) [Compound 40, 4-(7-FLUOROIMIDAZO[1,2-A]PYRIDIN-3-YL)-7-((7-(PYRROLIDIN-1-YL)-2′,3′,5′,6,6′,7-HEXAHYDROSPIRO[B]PYRIDIN-5,4′-PYRAN]-2-YL)AMINO)ISOINDOLIN-1-ONE], in data set [4], the Maximum induction factor is reported as 11.5 and the “EC3x” value turned out to be 163 nM. In addition, the IC50 (as a rule, the concentration that inhibits the measured activity by half) in data set [5] turned out to be 4.8 nM.
Turning to `CC(C)NC1CC2(CCOCC2)c2ccc(Nc3ccc(-c4cnc5cc(F)ccn45)c4c3C(=O)NC4)nc21` (centres unmarked) [Compound 104], the figures for the IC50 in data set [2] and in data set [5] were 552 nM and 3.49 nM, respectively. Besides, the Maximum induction factor in data set [4] is 8.3. For the same compound, the “EC3x” value in data set [4] amounted to 172 nM.
In data set [2], `O=C1NCc2c(-c3cnc4cc(F)ccn34)ccc(Nc3ccc4c(n3)C(NC3CCOCC3)CC43CCOCC3)c21` (centres unmarked) [Compound 108] returned an IC50 of 1050 nM. Also, in data set [4], the Maximum induction factor was found to be 8.4 and the “EC3x” value worked out at 448 nM. Also, the IC50 in data set [5] was found to be 3.29 nM.
On to `CN(C)[C@@H]1CC2(CCOCC2)c2ccc(Nc3ccc(-c4cnc5cc(OC(F)F)ccn45)c4c3C(=O)NC4)nc21` [Compound 158A, (R)-4-(7-(DIFLUOROMETHOXY)IMIDAZOL 1,2-A]PYRIDIN-3-YL)-7-((7-DIMETHYLAMINO)-2′,3′,5′,6,6′,7-HEXAHYDROSPIRO[CYCLOPENTADIENYL[B]PYRIDINE-54′-PYRAN]-2-YL)AMINO)ISOINDOLIN-1-ONE], for which the midpoint of inhibition in data set [2], the IC50, lay at 206 nM. Moreover, in data set [3], the Maximum induction factor is 10.8 and the “EC3x” value is reported as 167 nM. In data set [5], this compound returned an IC50 of 3 nM. For the same compound, in data set [6] (setting [9]), the “Bioavailability F %” value was determined as 43%, the “PO Plasma AUC” value was found to be 2704 ng·h/mL and the “T1/2” value was determined as 6.06 h.
`CN(C)Cc1nc(Nc2ccc(-c3cnc4cc(F)ccn34)c3c2C(=O)NC3)ccc1C1CCOCC1` [Compound D1, reference compound]: the “IV Plasma Cl_obs” value in data set [7] (IV 1 mg/kg) was 17.6 mL/min/kg. Besides, the half-life – broadly, the time in which the quantity being followed falls by half – in data set [7] (column beside IV plasma Cl_obs (IV 1 mg/kg)) was 4.01 h; in data set [6] (plasma, PO 10 mg/kg, saline), 3.19 h. Further, the AUC (commonly the area under the concentration-time curve, a measure of exposure) worked out at 1720 ng·h/mL in data set [7] (plasma, PO 5 mg/kg) and 396 ng·h/mL in data set [6] (plasma, PO 10 mg/kg, saline). Also, the Maximum induction factor in data set [3] amounted to 4.6; in data set [4], 8.1. Moreover, the “EC3x” value in data set [3] was found to be 528 nM; in data set [4] it was 544 nM. In addition, the TGI (in general, how far tumour growth fell short of that in controls) in data set [8] stood at 38%. Further, the bioavailability – broadly, the share of a dose that reaches the circulation, judged against a reference dose that is usually intravenous – in data set [6] (plasma, PO 10 mg/kg, saline, read-out: Bioavailability F %) stood at 11.6%.
